A word on the IC50: it is the concentration at which inhibition is half-maximal. High values mean lower potency, low ones higher potency.

No end group written: not given here.

The assay relates to human umbilical vein endothelial cells (HUVEC).

With “GHGHGHGKHKNKGKKN-OH [SEQ ID NO:8, Gly-His-Gly-His-Gly-His-Gly-Lys-His-Lys-Asn-Lys-Gly-Lys-Lys-Asn]”, the IC50 was 8 µM.

In the case of “HKNKGKKNGKHNGWKT-OH [SEQ ID NO:9, His-Lys-Asn-Lys-Gly-Lys-Lys-Asn-Gly-Lys-His-Asn-Gly-Trp-Lys-Thr]”, inhibition was half-maximal at 14 µM (IC50).

(Values after US6767889B1, “Inhibition of angiogenesis by high molecular weight kininogen and peptide analogs thereof” (Temple University of the Commonwealth System of Higher …, priority 1998, dated 2004).)
